Measured values published in patent US6699877B2 (Gruenenthal GmbH, priority 2000, dated 2004).

Biological target: T1, NMDA receptor channel (Rattus norvegicus, UniProt P35439)
T1 construct: were micro-injected with total RNA from brain tissue of adult rats; expressed in transfected cells; host or cells: Xenopus laevis oocytes injected with total RNA from adult rat brain
Assay: NMDA/glycine-induced ionic currents in RNA-injected Xenopus oocytes (two-electrode voltage clamp)
Type: cell-based
Protocol: NMDA/Glycine-induced Ionic Currents in RNA-injected Xenopus Oocytes
The experiment to determine functional changes in the NMDA receptor channel due to the compound according to the invention of Formula I was carried out on oocytes of the South African clawed frog, Xenopus laevis. Neuronal NMDA receptor channels were formed for this purpose after injection of RNA from rats' brain into oocytes and were measured by coapplication of NMDA and glycine-activated ionic currents.
Xenopus oocytes from stages V and VI (Dumont, J. N., Journal of Morphology, Vol. 136, 1972) were micro-injected with total RNA from brain tissue of adult rats (100-130 ng/cell) and kept in the culture medium (composition in mmol/l: 88.0 NaCl, 1.0 KCl, 1.5 CaCl2, 0.8 MgSO4, 2.4 NaHCO3, 5 HEPES, 100 IU/ml penicillin, 100 μg/ml streptomycin, pH 7.4) for up to 10 days at 20° C. Transmembranous ionic currents were recorded as in conventional two-electrode voltage clamp technology with a holding potential of −70 mV (P. Bloms-Funke P, M. Madeja, U. Muβhoff, E.-J. Speckman, Neuroscience Letters, Vol. 205, p. 115, 1996). […] To test the effects of substances brought about via the glycine B-binding site of the NMDA receptor channel, the glycine dosage/response curve was recorded with and without the respective compound according to the invention. […] The data was analyzed using Igor-Pro software (Version 3.1, WaveMetrics USA). […]

O=C(O)C1Nc2cc(Cl)cc(Cl)c2C2C=CCC12 (centres unmarked) [Example 2, 7,9-dichloro-3a,4,5,9b-tetrahydro-3H-cyclopenta[c]quinoline-4-carboxylic Acid]
Kb (NMDA 100 μmol/l with glycine 0-100 μmol/l, oocytes injected with rat brain RNA, read-out: NMDA/glycine-induced ionic currents pA2 value of glycine dosage/response curve (converted)): 398 nM
Effect on the glycine dosage/response curve (FIG. 1) (RNA-injected oocytes, amplitude standardized to NMDA/glycine (100/10 μmol/l)): displacement of the glycine dosage/response curve to the right
